# US20250066389A1, “HETEROCYCLIC AMIDES AND METHODS OF USING THE SAME” (Rgenta Therapeutics, Inc., priority 2021, published 2025)
# Structures can show the parent of a compound that is named as a salt.
# Test system: PMS1
# Test: Mini-Gene Reporter Assay—PMS1 (firefly luciferase mini-gene reporter transiently transfected into HEK293 cells)
# Format: cell-based
# Conditions: Homo sapiens; at 5 uM; mini-gene firefly luciferase reporter in HEK293 cells; read-out: PMS1 % Effect at 5 uM
# Summary of the method: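 Luminescence (RLU) read-out of exon inclusion: compound dilutions, tested in duplicate, act on transiently transfected HEK293 cells carrying a firefly luciferase reporter fused downstream of the PMS1 skipped-exon region. Potency derived by Levenberg-Marquardt curve fitting, with percent effect at 5 μM.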
row,SMILES,activation at 5 µM [%]
1,CCOc1cc2nc(C)cn2cc1C(=O)Nc1cnc(N2C[C@H]3CNC[C@H]3C2)nc1 [Compound 646],50 to 75
2,CCOc1cc2nc(C)cn2cc1C(=O)Nc1cnc(N2CCC(NC)CC2)nc1 [Compound 648],< 50
3,CCOc1cc2nc(C)cn2cc1C(=O)Nc1cnc(N(C)C2CCNCC2)nc1 [Compound 649],50 to 75
4,CCOc1cc2nc(C)cn2cc1C(=O)Nc1cnc(N2CCCNCC2)nc1 [Compound 653],< 50
5,CCOc1cc2nc(C)cn2cc1C(=O)Nc1cnc(N2CCNC(C)C2)nc1 (centres unmarked) [Compound 654],> 75
6,CCOc1cc2nc(C)cn2cc1C(=O)Nc1cnc(NCC2CCNC23CCC3)cn1 (centres unmarked) [Compound 659],> 75
7,CCOc1cc2nc(C)cn2cc1C(=O)Nc1cnc(N2CC(O)(CNC)C2)cn1 [Compound 662],> 75
8,CCOc1cc2nc(C)cn2cc1C(=O)Nc1cnc(NC2CNC(C)(C)C2)cn1 (centres unmarked) [Compound 663],> 75
9,CCOc1cc2nc(C)cn2cc1C(=O)Nc1cnc(N2CC(C3CNC3)C2)cn1 [Compound 664],> 75
10,CCOc1cc2nc(C)cn2cc1C(=O)Nc1cnc(N[C@@H]2CNC[C@@H]2F)cn1 [Compound 666],50 to 75
11,CCOc1cc2nc(C)cn2cc1C(=O)Nc1cnc(N2CC(N)C(C)(C)C2)cn1 (centres unmarked) [Compound 667],> 75
12,CCOc1cc2nc(C)cn2cc1C(=O)Nc1cnc(NCCC2CNCC(C)O2)cn1 (centres unmarked) [Compound 669],< 50
13,CCOc1cc2nc(C)cn2cc1C(=O)Nc1cnc(N2CC[C@@H](C)[C@@H](NC)C2)cn1 [Compound 671],< 50
14,CCOc1cc2nc(C)cn2cc1C(=O)Nc1cnc(N2C[C@@H](F)C[C@H]2CN)cn1 [Compound 672],50 to 75
15,CCOc1cc2nc(C)cn2cc1C(=O)Nc1cnc(N2CCC3(CNCCO3)C2)cn1 (centres unmarked) [Compound 673],< 50
16,CCOc1cc2nc(C)cn2cc1C(=O)Nc1cnc(NCC2(F)CCNC2)cn1 (centres unmarked) [Compound 674],50 to 75
17,CCOc1cc2nc(C)cn2cc1C(=O)Nc1cnc(N2CCOC3(CCNC3)C2)cn1 (centres unmarked) [Compound 676],50 to 75

row,SMILES,activation at 5 µM [%]
1,CCOc1cc2nc(C)cn2cc1C(=O)Nc1cnc(N2CC(N)C3(CC3)C2)cn1 (centres unmarked) [Compound 678],> 75
2,CCOc1cc2nc(C)cn2cc1C(=O)Nc1cnc(NCc2cccc(CNC)c2)cn1 [Compound 679],< 50
3,CCOc1cc2nc(C)cn2cc1C(=O)Nc1cnc(N2CCC3(CC2)CNCCO3)cn1 [Compound 683],< 50
4,CCOc1cc2nc(C)cn2cc1C(=O)Nc1cnc(N2CCC3(CCNCC3)C2)cn1 [Compound 685],50 to 75
5,CCOc1cc2nc(C)cn2cc1C(=O)Nc1cnc(N2C3CCC2CNC3)cn1 [Compound 686],> 75
6,CCNCC1CCN(c2cnc(NC(=O)c3cn4cc(C)nc4cc3OCC)cn2)CC1 [Compound 687],> 75
7,CCOc1cc2nc(C)cn2cc1C(=O)Nc1cnc(N2CCC(NC)C2)cn1 (centres unmarked) [Compound 688],> 75
8,CCOc1cc2nc(C)cn2cc1C(=O)Nc1cnc(N2CCCC(NC)C2)cn1 (centres unmarked) [Compound 690],50 to 75
9,CCOc1cc2nc(C)cn2cc1C(=O)Nc1cnc(N2CCC(NC)CC2)cn1 [Compound 691],> 75
10,CCOc1cc2nc(C)cn2cc1C(=O)Nc1cnc(N2CCNC[C@H]2C)cn1 [Compound 692],> 75
11,CCOc1cc2nc(C)cn2cc1C(=O)Nc1cnc(N2CCNCC2)cn1 [Compound 693],> 75
12,CCOc1cc2nc(C)cn2cc1C(=O)Nc1cnc(N2CCC(N)C2)cn1 (centres unmarked) [Compound 694],> 75
13,CCOc1cc2nc(C)cn2cc1C(=O)Nc1cnc(N2CCC(N)CC2)cn1 [Compound 695],> 75
14,CCOc1cc2nc(C)cn2cc1C(=O)Nc1cnc(N[C@H]2CCNC2)cn1 [Compound 696],50 to 75
15,CCOc1cc2nc(C)cn2cc1C(=O)Nc1cnc(N2CCNCC2C)cn1 (centres unmarked) [Compound 697],> 75
16,CCOc1cc2nc(C)cn2cc1C(=O)Nc1cnc(N2CCNC(C)C2)cn1 (centres unmarked) [Compound 698],> 75
17,"CCOc1cn2nc(C)cc2cc1C(=O)Nc1cnc(N2CCN[C@@H](C)C2)cn1 [Compound 701, 6-ethoxy-2-methyl-N-{5-[(3S)-3-methylpiperazin-1-yl]pyrazin-2-yl}pyrazolo[1,5-a]pyridine-5-carboxamide]",> 75

# Same assay, conditions: Homo sapiens; mini-gene firefly luciferase reporter in HEK293 cells
row,SMILES,IC50 [nM]
1,"CCOc1cc2nc(C)cn2cc1C(=O)Nc1cnc(N2CCN[C@@H](C)C2)cn1 [Compound 700, 7-ethoxy-2-methyl-N-5-[(3S)-3-methylpiperazin-1-yl]pyrazin-2-ylimidazo[1,2-a]pyridine-6-carboxamide]",< 1000
2,"CCOc1cc2nc(C)cn2cc1C(=O)Nc1ccc(N2CCN[C@@H](C)C2)cc1F [Compound 702, 7-ethoxy-N-2-fluoro-4-[(3S)-3-methylpiperazin-1-yl]phenyl-2-methylimidazo[1,2-a]pyridine-6-carboxamide]",< 1000
3,"CCOc1cc2nc(C)cn2cc1C(=O)Nc1ccc(N2CCNC3(CC3)C2)cc1F [Compound 704, N-(4-4,7-diazaspiro[2.5]octan-7-yl-2-fluorophenyl)-7-ethoxy-2-methylimidazo[1,2-a]pyridine-6-carboxamide]",< 1000
4,"Cc1cn2cc(C(=O)Nc3ccc(N4CCN[C@@H](C)C4)cc3F)c(OC3CCC3)cc2n1 [Compound 705, 7-cyclobutoxy-N-2-fluoro-4-[(3S)-3-methylpiperazin-1-yl]phenyl-2-methylimidazo[1,2-a]pyridine-6-carboxamide]",< 1000
5,"CCOc1cc2nn(C)cc2cc1C(=O)Nc1ccc(C2=CCNCC2)nn1 [Compound 708, 6-ethoxy-2-methyl-N-(6-(1,2,3,6-tetrahydropyridin-4-yl)pyridazin-3-yl)-2H-indazole-5-carboxamide formate]",< 1000
6,"CCOc1cc2nc(C)cn2cc1C(=O)Nc1ccc(C2=CCNCC2)nn1 [Compound 709, 7-ethoxy-2-methyl-N-(6-(1,2,3,6-tetrahydropyridin-4-yl)pyridazin-3-yl)imidazo[1,2-a]pyridine-6-carboxamide hydrochloride]",< 1000
7,"CCOc1cc2nn(C)cc2cc1C(=O)Nc1cnc(N2CCN[C@@H](C)C2)cn1 [Compound 710, (S)-6-ethoxy-2-methyl-N-(5-(3-methylpiperazin-1-yl)pyrazin-2-yl)-2H-indazole-5-carboxamide formate]",< 1000
8,"CCOc1nc2nc(C)cn2cc1C(=O)Nc1ccc(N2CCNCC2)cn1 [Compound 711, 7-ethoxy-2-methyl-N-(5-(piperazin-1-yl)pyridin-2-yl)imidazo[1,2-a]pyrimidine-6-carboxamide formate]",< 1000
9,"Cc1cn2cc(C(=O)Nc3ccc(N4CCNCC4)cn3)c(OC3CC3)cc2n1 [Compound 712, 7-cyclopropoxy-2-methyl-N-(5-(piperazin-1-yl)pyridin-2-yl) imidazo[1,2-a]pyridine-6-carboxamide hydrochloride]",< 1000
10,"COc1cc2nc(C)cn2cc1C(=O)Nc1ccc(N2CCN[C@@H](C)C2)nn1 [Compound 713, (S)-7-methoxy-2-methyl-N-(6-(3-methylpiperazin-1-yl)pyridazin-3-yl)imidazo[1,2-a]pyridine-6-carboxamide hydrochloride]",< 1000
11,"CCOc1nc2nc(C)cn2cc1C(=O)Nc1ccc(N2C[C@@H](C)N[C@@H](C)C2)nn1 [Compound 714, N-(6-((3R,5S)-3,5-dimethylpiperazin-1-yl)pyridazin-3-yl)-7-ethoxy-2-methylimidazo[1,2-a]pyrimidine-6-carboxamide hydrochloride]",< 1000
12,"CCOc1nc2nn(C)cc2cc1C(=O)Nc1ccc(N2CCNCC2)nn1 [Compound 715, 6-ethoxy-2-methyl-N-(6-(piperazin-1-yl)pyridazin-3-yl)-2H-pyrazolo[3,4-b]pyridine-5-carboxamide]",< 1000
13,"CCOc1cc2nn(C)cc2cc1C(=O)Nc1cnc(N2CCN[C@@H](CC)C2)cn1 [Compound 716, (S)-6-ethoxy-N-(5-(3-ethylpiperazin-1-yl)pyrazin-2-yl)-2-methyl-2H-indazole-5-carboxamide HCl Salt]",< 1000
14,"CCOc1cc2nn(C)cc2cc1C(=O)Nc1ccc(C2CCN[C@@H](C)C2)nn1 (stereo partly drawn) [Compound 717, 6-ethoxy-2-methyl-N-(6-((2S)-2-methylpiperidin-4-yl)pyridazin-3-yl)-2H-indazole-5-carboxamide]",< 1000
15,"COc1cc2nc(C)cn2cc1C(=O)Nc1ccc(N2CCN[C@@H](C)C2)cn1 [Compound 718, (S)-7-methoxy-2-methyl-N-(5-(3-methylpiperazin-1-yl)pyridin-2-yl)imidazo[1,2-a]pyridine-6-carboxamide formate]",< 1000
16,"CCOc1cc2nc(C)cn2cc1C(=O)Nc1cnc(N2C[C@@H](C)N[C@@H](C)C2)cn1 [Compound 719, N-(5-((3S,5R)-3,5-dimethylpiperazin-1-yl)pyrazin-2-yl)-7-ethoxy-2-methylimidazo[1,2-a]pyridine-6-carboxamide]",< 1000
17,"CCOc1cc2nn(C)cc2cc1C(=O)Nc1cnc(N2C[C@@H](C)N[C@@H](C)C2)cn1 [Compound 720, N-(5-((3R,5S)-3,5-dimethylpiperazin-1-yl)pyrazin-2-yl)-6-ethoxy-2-methyl-2H-indazole-5-carboxamide hydrochloride]",< 1000
18,"CCOc1nc2nc(C)cn2cc1C(=O)Nc1cnc(N2C[C@@H](C)N[C@@H](C)C2)cn1 [Compound 721, N-(5-((3R,5S)-3,5-dimethylpiperazin-1-yl)pyrazin-2-yl)-7-ethoxy-2-methylimidazo[1,2-a]pyrimidine-6-carboxamide hydrochloride]",1000 to 10000
19,"CCOc1nc2nc(C)cn2cc1C(=O)Nc1cnc(N2CCN[C@@H](C)C2)cn1 [Compound 722, (S)-7-ethoxy-2-methyl-N-(5-(3-methylpiperazin-1-yl)pyrazin-2-yl)imidazo[1,2-a]pyrimidine-6-carboxamide formate]",1000 to 10000
